This note sets out measurements from PMC12261321, “Inhibitors of the Bacterioferritin Ferredoxin Complex Dysregulate Iron Homeostasis and Kill and Biofilm-Embedded Cells” (ACS Infectious Diseases, 2025).

Experiment [1] concerns A. baumannii 5075. The experiment in a line: Time kill assays. The experiment is classed as cell-based. To be noted: for rate of killing: each agent at its MIC. Here is the method:
dissolved in DMSO, such that the resultant solution had the highest concentration of compound or antibiotic tested and 1.5% DMSO. To carry out the serial dilution from the highest compound concentration, a 150 μ L solution of higher concentration compound or antibiotic was mixed with 150 μ L of cell suspension containing 1.5% DMSO in the wells of a 96 well plate.
Th e 96 well plate was in cubated for 20 hat 35 °C with continuous orbital shaking (205 cpm) in an Epoch2 microplate reader (BioTek), monitoring the growth by […]
following the OD600. […]
Time Kill Assays. Time-kill assays were performed with A. baumannii 507 5 by the broth macro- dilution method in M63- medium containing 1.5% DMSO. An overnight culture was diluted to approximately 5 x10^5 CFU/mL in fresh M63 media. The test solutions were prepared by adding compound (KM-5- 35, or KM-5- 25) dissolved in DMSO to 5 mL of diluted cell suspension to yield a solution of the desired compound concentration and 1.5% DMSO, or by the addition of antibiotic dissolved in water and a small volume of DMSO to produce the desired […]
antibiotic concentration and 1.5% DMSO. Controls containing the diluted cell suspension, 1.5% DMSO but no test compounds were also prepared. […]
800 µL of the suspension was lay ered onto 700 µL of chilled silicon oil contained in 1.5 mL Eppendo rf tubes and then centrifuged at 4 °C ( 900 x g) for 10 min, then again at 16,200 x g for 5 min to allow pass ag e of the cell suspension through the silicon oil layer. The aqueous and oil layers were removed, and the cell pellet was washed twice in PBS (800 μ L), each time transferring the cell suspension to a new Eppendorf tube and then centrifuging at 16,200 x g. The cell pellet was lysed in 800 µL methanol by vortexing followed by 10 min incubationat room temperatur e. The lysate suspension was pelleted, the supernatant was transferred to a new Eppendorf tube and then placed into a vacuum concentrator (Eppendorf 5301 Vacufuge) to evaporate the methanol (4 h). The dried

Experiment [2] concerns A. baumannii 5075. Briefly: Checkerboard assay. It is filed as cell-based. The procedure:
To carry out the serial dilution from the highest compound concentration, a 150 μ L solution of higher concentration compound or antibiotic was mixed with 150 μ L of cell suspension containing […] Th e 96 well plate was in cubated for 20 hat 35 °C with continuous orbital shaking (205 cpm) in an Epoch2 microplate reader (BioTek), monitoring the growth by following the OD600. […] All assays were p erfo rmed in three biological replicates, each with three […] replicates. Checkerboard Assay. […] CFU/mL. […] in the vertical and hori zontal direction, respectivel y. Bacterial suspensions were […] escrib ed above fo r the MIC determination and added to the plates. […] The 96-well […] cubated for 20 h at 35 °C with continuous orbital shaking (205 cpm) in an Epoch2 microplate reader (BioTek), monitoring the growth by following the OD600. The MIC values of inhibitor and antibiotic were obtained from the corresponding row or column which contained only one component, whereas the remaining rows and columns were utilized for calculating the fractional inhibitory concentration index (FIC) with the aid of equation […] = […]2 Time Kill Assays. Time-kill assays were performed with A. baumannii 507 5 by the broth macro- dilution method […] An overnight culture was diluted to approximately 5 x10^5 CFU/mL in fresh […] media. […] DMSO, or by the addition of antibiotic dissolved in water and a small volume of DMSO to produce the desired S7

Where “and” joins values, the source holds several entries; their conditions need not be identical. Equal values may be shown once. A value given as a limit tells only on which side of the number the result lay.

Turning to `O=C1NC(=O)c2c(NCc3cc(Cl)ccc3O)cccc21` [KM-5-25, 4-((5-Chloro-2-hydroxybenzyl)amino)isoindoline-1,3-dione], the time kill outcome is on record as “cell growth is observed at later hours” in the experiment on A. baumannii 5075 [1] (compound at 1 × MIC) and “bactericidal” with A. baumannii 5075 [1] (compound at 1.5 × MIC (limit of aqueous solubility)). In addition, in the experiment on A. baumannii 5075 [1] (compound at the MIC), the “reduction of viable cells (CFU/mL) relative to the inoculum” value is “approximately 3 log10”. In addition, in the experiment on A. baumannii 5075 [1] (compound at the MIC), the “time to approximately 3log10 reduction of viable cells” value was “approximately 3 h”. Besides, in the experiment with A. baumannii 5075 [1], the rate of killing entry is given as “slower than that observed with KM-5–35”. Moreover, the FIC in the experiment on A. baumannii 5075 [2] (KM-5–25 with colistin, 5075 (Figure S3)) was 0.36 and 0.38; with A. baumannii 5075 [2] (KM-5–25 with imipenem, 5075 (Figure S3)) it was 0.63.

For the molecule `O=C1NC(=O)c2c(NCc3cc(Br)ccc3O)cccc21` [KM-5-35, 4-((5-Bromo-2-hydroxybenzyl)amino)isoindoline-1,3-dione], the time kill outcome in the experiment on A. baumannii 5075 [1] (compound at 1 × MIC) is “bactericidal”. In addition, the “reduction of viable cells (CFU/mL) relative to the inoculum” value in the experiment with A. baumannii 5075 [1] (compound at the MIC) is recorded as more than 3 log10. The rate of killing entry in the experiment on A. baumannii 5075 [1] is recorded as “faster than meropenem but slower than colistin”. Moreover, the FIC was 0.50 with A. baumannii 5075 [2] (KM-5–35 with ceftazidime, 5075); 0.53 in the experiment with A. baumannii 5075 [2] (KM-5–35 with ciprofloxacin, 5075); 0.50 with A. baumannii 5075 [2] (KM-5–35 with meropenem, 5075); 0.50 in the experiment with A. baumannii 5075 [2] (KM-5–35 with tobramycin, 5075). Besides, the MIC alone in the experiment with A. baumannii 5075 [2] (agent alone, 5075, KM-5–35 14 μg/mL = 40 μM) was found to be 14 mg/L. The “MIC of KM-5–35 in combination” value came to 7 mg/L with A. baumannii 5075 [2] (in combination with ceftazidime, 5075); 7 mg/L with A. baumannii 5075 [2] (in combination with ciprofloxacin, 5075); 3.5 mg/L with A. baumannii 5075 [2] (in combination with imipenem, 5075); 7 mg/L with A. baumannii 5075 [2] (in combination with tobramycin, 5075).
